Reference: US8658794B2, “8-methyl-1-phenyl-imidazol[1,5-a]pyrazine compounds as Lck inhibitors and uses thereof” (Merck Sharp & Dohme B.V., priority 2010, dated 2014)

Biological target: T1, N-terminal His6-tagged recombinant full-length human Lck (Homo sapiens, UniProt P06239)
T1 construct: N-terminal His6-tagged recombinant full-length human Lck; His6 (N); purchased Millipore
Assay: Lck IMAP assay
Type: biochemical
Settings: ATP 6 μM (KM,ATP), enzyme pre-incubated with compounds for 60 minutes, values given as bins
Procedure, shortened: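 Full-length His6-Lck at 0.1 U/ml was preincubated 60 min with compound, then run 120 min at room temperature with 100 nM fluorescein-p34cdc2 peptide and 6 μM ATP (KM) in pH 7.2 Tris buffer. Read-out by IMAP fluorescence polarization; pIC50 from ten-point √10 dilutions starting at 10^-6 M.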

T1 sequence (P06239 whole entry): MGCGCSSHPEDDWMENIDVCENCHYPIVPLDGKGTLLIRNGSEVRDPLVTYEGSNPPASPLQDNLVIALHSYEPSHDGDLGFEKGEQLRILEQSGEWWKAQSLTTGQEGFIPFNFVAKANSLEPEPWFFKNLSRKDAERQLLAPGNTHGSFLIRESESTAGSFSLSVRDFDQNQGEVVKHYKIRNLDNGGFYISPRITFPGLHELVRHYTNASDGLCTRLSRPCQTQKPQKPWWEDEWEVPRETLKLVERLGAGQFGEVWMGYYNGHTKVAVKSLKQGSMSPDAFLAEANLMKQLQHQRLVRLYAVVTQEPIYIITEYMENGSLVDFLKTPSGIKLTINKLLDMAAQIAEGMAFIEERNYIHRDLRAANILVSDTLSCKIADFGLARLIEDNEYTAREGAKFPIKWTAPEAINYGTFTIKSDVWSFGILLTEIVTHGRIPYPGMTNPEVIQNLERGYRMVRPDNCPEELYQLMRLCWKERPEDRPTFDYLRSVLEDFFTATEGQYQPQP

Row | IC50 [nM] | Compound
1 | ≤ 10 | COc1cc(-c2nc([C@H]3CC[C@H](N4CCN(C)CC4)CC3)n3ccnc(C)c23)ccc1NC(=O)c1cc2ccsc2n1C [Example 56, N-(2-methoxy-4-(8-methyl-3-((trans)-4-(4-methylpiperazin-1-yl)cyclohexyl)imidazo[1,5-a]pyrazin-1-yl)phenyl)-6-methyl-6H-thieno[2,3-b]pyrrole-5-carboxamide]
2 | ≤ 10 | COc1cc(-c2nc([C@H]3CC[C@H](N4CCN(C)CC4)CC3)n3ccnc(C)c23)ccc1NC(=O)c1cc2ccsc2[nH]1 [Example 57, N-(2-Methoxy-4-(8-methyl-3-((trans)-4-(4-methylpiperazin-1-yl)cyclohexyl)imidazo[1,5-a]pyrazin-1-yl)phenyl)-6H-thieno[2,3-b]pyrrole-5-carboxamide]
3 | ≤ 10 | COc1cc(-c2nc([C@H]3CC[C@H](N4CCN(C)CC4)CC3)n3ccnc(C)c23)ccc1NC(=O)c1cc2c(OC)cccc2[nH]1 [Example 58, 4-Methoxy-N-(2-methoxy-4-(8-methyl-3-((trans)-4-(4-methylpiperazin-1-yl)cyclohexyl)imidazo[1,5-a]pyrazin-1-yl)phenyl)-1H-indole-2-carboxamide]
4 | ≤ 10 | COc1cc(-c2nc([C@H]3CC[C@H](N4CCN(C)CC4)CC3)n3ccnc(C)c23)ccc1NC(=O)c1cc2c(O)cccc2n1C [Example 59, 4-Hydroxy-N-(2-methoxy-4-(8-methyl-3-((trans)-4-(4-methylpiperazin-1-yl)cyclohexyl)imidazo[1,5-a]pyrazin-1-yl)phenyl)-1-methyl-1H-indole-2-carboxamide]
5 | ≤ 10 | CCC[C@H](C)OC(=O)Nc1ccc(-c2nc([C@H]3CC[C@H](CN)CC3)n3ccnc(C)c23)cc1OC [Example 60, (S)-Pentan-2-yl 4-(3-((trans)-4-(aminomethyl)cyclohexyl)-8-methylimidazo[1,5-a]pyrazin-1-yl)-2-methoxyphenylcarbamate]
6 | ≤ 10 | Cc1nccn2c1c(-c1ccc(NC(=O)c3cc4ccccc4n3C)cc1)nc2[C@H]1CC[C@H](N2CCN(C)CC2)CC1 [Example 61, 1-Methyl-N-(4-(8-methyl-3-((trans)-4-(4-methylpiperazin-1-yl)cyclohexyl)imidazo[1,5-a]pyrazin-1-yl)phenyl)-1H-indole-2-carboxamide]
7 | ≤ 10 | COc1cccc2c1cc(C(=O)Nc1ccc(-c3nc([C@H]4CC[C@H](N5CCN(C)CC5)CC4)n4ccnc(C)c34)cc1O)n2C [Example 62, N-(2-hydroxy-4-(8-methyl-3-((trans)-4-(4-methylpiperazin-1-yl)cyclohexyl)imidazo[1,5-a]pyrazin-1-yl)phenyl)-4-methoxy-1-methyl-1H-indole-2-carboxamide]
8 | ≤ 10 | CNC[C@H]1CC[C@H](c2nc(-c3ccc(NC(=O)c4cc5c(OC)cccc5n4C)c(OC)c3)c3c(C)nccn32)CC1 [Example 63, 4-Methoxy-N-(2-methoxy-4-(8-methyl-3-((trans)-4-((methylamino)methyl)cyclohexyl)imidazo[1,5-a]pyrazin-1-yl)phenyl)-1-methyl-1H-indole-2-carboxamide]
9 | ≤ 10 | COc1cc(-c2nc([C@H]3CC[C@H](CN(C)C)CC3)n3ccnc(C)c23)ccc1NC(=O)c1cc2c(OC)cccc2n1C [Example 64, N-(4-(3-((trans)-4-((dimethylamino)methyl)cyclohexyl)-8-methylimidazo[1,5-a]pyrazin-1-yl)-2-methoxyphenyl)-4-methoxy-1-methyl-1H-indole-2-carboxamide]
10 | ≤ 10 | CCC[C@H](C)OC(=O)Nc1ccc(-c2nc([C@H]3CC[C@H](CN(C)C)CC3)n3ccnc(C)c23)cc1OC [Example 65, (S)-Pentan-2-yl 4-(3-((trans)-4-((dimethylamino)methyl)cyclohexyl)-8-methylimidazo[1,5-a]pyrazin-1-yl)-2-methoxyphenylcarbamate]
11 | ≤ 10 | COc1ccc2c(C(=O)Nc3ccc(-c4nc([C@H]5CC[C@H](N6CCN(C)CC6)CC5)n5ccnc(C)c45)cc3OC)n[nH]c2c1 [Example 66, 6-Methoxy-N-(2-methoxy-4-(8-methyl-3-((trans)-4-(4-methylpiperazin-1-yl)cyclohexyl)imidazo[1,5-a]pyrazin-1-yl)phenyl)-1H-indazole-3-carboxamide]
12 | ≤ 10 | COc1cc(-c2nc([C@H]3CC[C@H](N4CCN(C)CC4)CC3)n3ccnc(C)c23)ccc1NC(=O)c1cc2cc(Cl)cnc2n1C [Example 67, 5-Chloro-N-(2-methoxy-4-(8-methyl-3-((trans)-4-(4-methylpiperazin-1-yl)cyclohexyl)imidazo[1,5-a]pyrazin-1-yl)phenyl)-1-methyl-1H-pyrrolo[2,3-b]pyridine-2-carboxamide]
13 | ≤ 10 | COc1cc(-c2nc([C@H]3CC[C@H](CNC(C)=O)CC3)n3ccnc(C)c23)ccc1NC(=O)c1cc2c(OC)cccc2n1C [Example 68, N-(4-(3-((trans)-4-(acetamidomethyl)cyclohexyl)-8-methylimidazo[1,5-a]pyrazin-1-yl)-2-methoxyphenyl)-4-methoxy-1-methyl-1H-indole-2-carboxamide]
14 | ≤ 10 | CCC[C@H](C)OC(=O)Nc1ccc(-c2nc([C@H]3CC[C@H](CNC(C)=O)CC3)n3ccnc(C)c23)cc1OC [Example 69, (S)-pentan-2-yl 4-(3-((trans)-4-(acetamidomethyl)cyclohexyl)-8-methylimidazo[1,5-a]pyrazin-1-yl)-2-methoxyphenylcarbamate]
15 | ≤ 10 | CCC[C@H](C)OC(=O)Nc1ccc(-c2nc([C@H]3CC[C@H](CNC(=O)OC)CC3)n3ccnc(C)c23)cc1OC [Example 70]
16 | ≤ 10 | COc1cc(-c2nc(C3CCC(=O)CC3)n3ccnc(C)c23)ccc1NC(=O)c1cc2c(OC)cccc2n1C [Example 71, 4-Methoxy-N-(2-methoxy-4-(8-methyl-3-(4-oxocyclohexyl)imidazo[1,5-a]pyrazin-1-yl)phenyl)-1-methyl-1H-indole-2-carboxamide]
17 | ≤ 10 | CNC[C@]1(O)CC[C@H](c2nc(-c3ccc(NC(=O)c4cc5c(OC)cccc5n4C)c(OC)c3)c3c(C)nccn32)CC1 [Example 72, N-(4-(3-((trans)-4-hydroxy-4-((methylamino)methyl)cyclohexyl)-8-methylimidazo[1,5-a]pyrazin-1-yl)-2-methoxyphenyl)-4-methoxy-1-methyl-1H-indole-2-carboxamide]
18 | ≤ 10 | COc1cc(-c2nc(C3CC(=O)N(C)C3)n3ccnc(C)c23)ccc1NC(=O)c1cc2c(OC)cccc2n1C (centres unmarked) [Example 73, 4-Methoxy-N-(2-methoxy-4-(8-methyl-3-(1-methyl-5-oxopyrrolidin-3-yl)imidazo[1,5-a]pyrazin-1-yl)phenyl)-1-methyl-1H-indole-2-carboxamide]
19 | ≤ 10 | COc1cc(-c2nc([C@H]3CC[C@H](N4CCN(C)C(=O)C4)CC3)n3ccnc(C)c23)ccc1NC(=O)c1cc2c(OC)cccc2n1C [Example 74, 4-Methoxy-N-(2-methoxy-4-(8-methyl-3-((trans)-4-(4-methyl-3-oxopiperazin-1-yl)cyclohexyl)imidazo[1,5-a]pyrazin-1-yl)phenyl)-1-methyl-1H-indole-2-carboxamide]
20 | ≤ 10 | COc1cc2cc(C(=O)Nc3ccc(-c4nc([C@H]5CC[C@H](N6CCN(C)CC6)CC5)n5ccnc(C)c45)cc3OC)n(C)c2cn1 [Example 75, 5-Methoxy-N-(2-methoxy-4-(8-methyl-3-((trans)-4-(4-methylpiperazin-1-yl)cyclohexyl)imidazo[1,5-a]pyrazin-1-yl)phenyl)-1-methyl-1H-pyrrolo[2,3-c]pyridine-2-carboxamide]
